Reference: patent US20250295659A1, “METHODS FOR TREATING TRAUMATIC BRAIN INJURY” (The Regents of the University of California, priority 2021, published 2025)
Entries after “also recorded” stand apart in the source; their conditions may differ.

Assays:
[1] = doses for FDA-approved treatments (cancer patients); cited from earlier work
[2] = target: c-Kit (Homo sapiens, UniProt P10721); settings: target kinase c-Kit; cell-free; read-out: IC50 (nm) in vitro; cited from earlier work
[3] = tested on: TBI (moderate lateral fluid percussion) in adult male Sprague-Dawley rats; assay: Morris Water Maze after moderate lateral fluid percussion TBI; assay type: in vivo, rat; settings: LFP-TBI, 2 mg/kg i.p. single dose immediately after TBI, days 12 through 16 after TBI, vs TBI/vehicle, P<0.05
Description: Moderate Lateral fluid percussion (LFP) was used to produce TBI in adult male Sprague-Dawley rats (weighing 300-350 grams). […] All of the following data were obtained using moderate LFP in adult rats. […] Sham and vehicle control animals received 5% DMSO in 0.9% saline. Morris Water Maze (MWM). Spatial memory was assessed using the MWM on days 12 through 16 after TBI. […] In brief rats were released from one of four starting points and allowed 120 s to find the escape platform. Rats received a total of 4 trials per day, one from each starting point, over 5 consecutive days. Behavioral assessments were performed by an individual blinded to the treatment groups. Mean latency to find the platform was calculated for each day to assess learning as well as the mean swimming speed to assess motor function. Statistical differences were determined using repeated measures ANOVA followed by Dunnett's post hoc test.

[4] = tested on: CCI-TBI in rats, ipsilateral hippocampal CA2-3 neurons; assay: NeuN-positive hippocampal CA2-3 neuron counts after CCI-TBI; assay type: in vivo, rat; settings: 2 mg/kg single dose at 0, 3 or 6 hrs post-TBI, 24 hrs after TBI, vs TBI/vehicle, P<0.05 or P<0.01
Description: Brain sample preparation and immunohistochemistry. Anesthetized rats were perfused with saline followed by 4% PFA at day 1 or day 16. Brain sections (50 μm) are cut at −20° C. and incubated in 0.3% H2O2 for 10 minutes to quench endogenous peroxidase, incubated with 3% horse blocking serum for 20 minutes, and then incubated overnight in primary antibody (mouse anti-NeuN, mature neuron marker, 1:150, Millipore), then in biotinylated secondary antibody (Goat anti-mouse 1:1,000, Vector) for 0.5 h, then placed in Vectastain ABC reagent for 0.5 hr and incubated in peroxidase substrate 3, 3′-diaminobenzidine (DAB) solution for 10 min.
Stereological cell counts. The total number of NeuN-positive neurons in CA2-3 of hippocampus were quantified bilaterally using stereological methods. The NeuN-positive cell counts were performed on a microscope (Nikon E600, Nikon) using commercial software (Stereo Investigator™8.0, Microbrightfield, Inc.). Serial sections cut at 50 μm thick were collected at Bregma −2.80 mm to Bregma −4.16 mm for a total of 10 sections per brain. […] Statistical differences are determined using ANOVA followed by Dunnett's post hoc test.
Methods: One day after controlled cortical impact (CCI)-TBI, rats were anesthetized and transcardially perfused with PBS followed by 4% PFA. […] The NeuN^+ cells in ipsilateral hippocampal CA2-3 were quantified (n=4-8).

[5] = tested on: CCI-TBI in rats; assay: Elevated body swing test after CCI-TBI; assay type: in vivo, rat; settings: 2 mg/kg i.p. single dose at 0 or 3 hrs post-TBI, 24 hrs after TBI, vs TBI/vehicle, P<0.05

Chain of c-Kit (P10721 26-976): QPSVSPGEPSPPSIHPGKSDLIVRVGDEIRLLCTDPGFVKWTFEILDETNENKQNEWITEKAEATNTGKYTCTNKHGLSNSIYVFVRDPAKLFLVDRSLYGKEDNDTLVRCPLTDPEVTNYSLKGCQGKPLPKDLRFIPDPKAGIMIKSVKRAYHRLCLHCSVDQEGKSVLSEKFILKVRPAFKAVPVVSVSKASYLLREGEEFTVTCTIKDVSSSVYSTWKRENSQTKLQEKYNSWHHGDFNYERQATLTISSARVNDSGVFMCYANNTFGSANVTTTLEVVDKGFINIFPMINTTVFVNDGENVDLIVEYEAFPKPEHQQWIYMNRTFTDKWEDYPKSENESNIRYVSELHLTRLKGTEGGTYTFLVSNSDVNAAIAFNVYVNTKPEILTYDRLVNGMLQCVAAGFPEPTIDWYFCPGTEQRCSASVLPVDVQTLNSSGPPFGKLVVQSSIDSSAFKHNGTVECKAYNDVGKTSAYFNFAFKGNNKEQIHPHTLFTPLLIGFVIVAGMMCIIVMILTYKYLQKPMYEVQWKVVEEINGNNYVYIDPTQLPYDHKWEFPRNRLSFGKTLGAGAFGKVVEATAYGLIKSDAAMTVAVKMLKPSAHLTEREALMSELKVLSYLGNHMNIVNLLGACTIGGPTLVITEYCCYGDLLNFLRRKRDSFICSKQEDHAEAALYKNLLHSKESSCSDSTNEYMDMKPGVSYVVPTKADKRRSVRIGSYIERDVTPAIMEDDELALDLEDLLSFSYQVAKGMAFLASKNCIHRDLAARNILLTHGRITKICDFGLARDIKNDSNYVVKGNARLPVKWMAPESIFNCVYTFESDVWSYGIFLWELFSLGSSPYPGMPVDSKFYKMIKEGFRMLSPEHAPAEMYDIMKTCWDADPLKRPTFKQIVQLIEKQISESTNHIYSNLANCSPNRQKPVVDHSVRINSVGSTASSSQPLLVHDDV

| SMILES | Common Side effects when used at the doses for FDA-approved treatments [1] | further results |
| --- | --- | --- |
| CCn1c(=O)c(-c2cc(NC(=O)Nc3ccccc3)c(F)cc2Br)cc2cnc(NC)cc21 [Ripretinib] | Alopecia, Fatigue, Nausea, Acute abdominal pain, Constipation, Myalgia, Diarrhea,; also recorded: Anorexia, Palmar-plantar erythrodysesthesia, Vomiting, Elevated serum lipase,; also recorded: Hypophosphatemia | – |
| Cc1cn(-c2cc(NC(=O)c3ccc(C)c(Nc4nccc(-c5cccnc5)n4)c3)cc(C(F)(F)F)c2)cn1 [Nilotinib] | Hypocalcemia, Hyponatremia, Back pain, Hyperkalemia, Hypokalemia,; also recorded: Pancytopenia, Anemia, Thrombocytopenia disorder, Leukopenia, Neutropenic; also recorded: disorder, Elevated serum lipase, Hypertension, Prolonged QT interval, Pharyngitis,; also recorded: Constipation, Muscle spasm, Pruritus of skin, Arthralgia, Myalgia, Vertigo | – |
| Cn1cc(-c2cc3c(N4CCN(c5ncc([C@@](C)(N)c6ccc(F)cc6)cn5)CC4)ncnn3c2)cn1 [Avapritinib] | Edema, Nausea, Fatigue, General weakness, Acute confusion, Vomiting, Anorexia,; also recorded: Diarrhea, Hair discoloration, Eye tearing, Acute abdominal pain, Constipation, Skin; also recorded: rash, Dizziness, Anemia, Leukopenia | – |
| FC(F)(F)c1ccc(CNc2ccc(Cc3c[nH]c4ncc(Cl)cc34)cn2)cn1 [Pexidartinib] | Blurred vision, decreased appetite, dizziness, fever, headache, itching or skin rash,; also recorded: fast heartbeat, swelling of the feet or lower legs | – |
| CCN(CC)CCNC(=O)c1c(C)[nH]c(/C=C2\C(=O)Nc3ccc(F)cc32)c1C [Sunitinib] | Increased risk of bleeding, Pain in extremities, Peripheral edema, Back pain,; also recorded: Hypertension, Chronic heart failure; also recorded: Stomatitis, Dyspepsia, Constipation, Dry skin, Dyschromia, Arthralgia, Headache; also recorded: disorder, Dizziness, Fever, Fatigue, General weakness, Dysgeusia, Skin rash,; also recorded: Anorexia | – |
| Cc1ccc(C(=O)Nc2ccc(CN3CCN(C)CC3)c(C(F)(F)F)c2)cc1C#Cc1cnc2cccnn12 [Ponatinib] | Thromboembolic disorder, Arterial thrombosis, Hypertension, Thrombocytopenic; also recorded: disorder, Neutropenic disorder, Anemia, Skin rash, Leukopenia, Acute abdominal; also recorded: pain, Fatigue, Headache disorder, Dry skin, Constipation, Arthralgia, Nausea,; also recorded: Fever, Lymphopenia, Bone marrow depression, Diarrhea, Vomiting | – |
| CNC(=O)c1cc(Oc2ccc(NC(=O)Nc3ccc(Cl)c(C(F)(F)F)c3)cc2)ccn1 [Sorafenib] | Hypophosphatemia, Anemia, Thrombocytopenia disorder, Leukopenia,; also recorded: Neutropenic disorder, Lymphopenia, Depression, Peripheral neuropathy,; also recorded: Hypertension, Hemorrhage, Stomatitis, Dyspepsia, Constipation, Gastrointestinal; also recorded: hemorrhage, Erectile dysfunction, Eczema, Exfoliative dermatitis, Erythema,; also recorded: Pruritus of skin, Alopecia | – |
| COc1cc2nccc(Oc3ccc(NC(=O)NC4CC4)c(Cl)c3)c2cc1C(N)=O [Lenvatinib] | – | IC50 [2]: 100 nM |
| Cc1ccc(Nc2nccc(N(C)c3ccc4c(C)n(C)nc4c3)n2)cc1S(N)(=O)=O [Pazopanib] | Nausea, Vomiting, Diarrhea, Thrombocytopenia disorder, Leukopenia, Neutropenic; also recorded: disorder, Alopecia, Hypertension, Fatigue, Hemorrhage, General weakness, Skin; also recorded: rash, Proteinuria, Anorexia, Weight loss, Headache disorder, Hair bleaching, Pain,; also recorded: Myalgia, Thrombotic disorder | – |
| CNC(=O)c1cc(Oc2ccc(NC(=O)Nc3ccc(Cl)c(C(F)(F)F)c3)c(F)c2)ccn1 [Regorafenib] | Hypertension, Impaired wound healing, General weakness, Fatigue, Anorexia,; also recorded: Palmar-plantar erythrodysesthesia, Diarrhea, Stomatitis, Weight loss, Infection,; also recorded: Voice change, Hemorrhage, Fever, Skin rash, Headache disorder,; also recorded: Hypophosphatemia, Pain, Nausea, Acute abdominal pain, Anemia | – |
| COc1cc(Nc2c(C#N)cnc3cc(OCCCN4CCN(C)CC4)c(OC)cc23)c(Cl)cc1Cl [Bosutinib] | Diarrhea, Nausea, Thrombocytopeniasorder, Vomiting, Kidney disease with; also recorded: reduction in GFR, Skin rash, Anemia, Fever, Fatigue, Neutropenic disorder,; also recorded: Abnormal hepatic function tests, Upper respiratory infection, Lower respiratory; also recorded: infection, General weakness, Anorexia, Pharyngitis, Back pain, Headache disorder,; also recorded: Dizziness, Dyspnea | – |
| Cc1nc(Nc2ncc(C(=O)Nc3c(C)cccc3Cl)s2)cc(N2CCN(CCO)CC2)n1 [Dasatinib] | Fever, Fatigue, Malaise; also recorded: Infection, Hypophosphatemia, Hypocalcemia, Body fluid retention, Anemia,; also recorded: Thrombocytopenia disorder, Neutropenic disorder, Peripheral neuropathy,; also recorded: Hemorrhage, Upper respiratory infection, Pleural effusions, Stomatitis,; also recorded: Constipation, Gastrointestinal hemorrhage, Pruritus of skin, Arthralgia, Dizziness, | latency to find the platform in the Morris Water Maze (spatial memory) [3]: significantly improved performance; also recorded: reduces spatial memory deficits; survival of NeuN+ CA2-3 neurons in ipsilateral hippocampus [4]: significantly promotes survival of CA2-3 neurons; also recorded: decreases CA2-3 neuronal loss; motor imbalance (biased swinging) in elevated body swing test [5]: significantly mitigated motor imbalance; also recorded: mitigates motor imbalance |
